The source of these data is patent publication US8865756B2, “Inhibitors of HCV NS5A” (Presidio Pharmaceuticals, Inc., priority 2008, dated 2014).

The experiment concerns HCV 1b_Huh-Luc/Neo-ET cell line persistently expressing a bicistronic genotype 1b replicon in Huh 7 cells. Description: HCV replicon assay (luciferase readout). It is filed as cell-based. Particulars: Hepatitis C virus, Huh-7, 72 h, read-out: Inhibition of HCV genotype 1b. How it is done:
Biological activity of the compounds of the invention was determined using an HCV replicon assay. The HCV 1b_Huh-Luc/Neo-ET cell line persistently expressing a bicistronic genotype 1b replicon in Huh 7 cells was obtained from ReBLikon GMBH. This cell line was used to test compound inhibition using luciferase enzyme activity readout as a measurement of compound inhibition of replicon levels.
On Day 1 (the day after plating), each compound is added in triplicate to the cells. Plates incubated for 72 h prior to running the luciferase assay. Enzyme activity was measured using a Bright-Glo Kit (cat. number E2620) manufactured by Promega Corporation. The following equation was used to generate a percent control value for each compound. % Control=(Average Compound Value/Average Control)*100
The EC50 value was determined using GraphPad Prism and the following equation: Y=Bottom+(Top−Bottom)/(1+10^((Log IC50−X)*HillSlope))
EC50 values of compounds are determined several times in the replicon assay.
Example compounds of the disclosed invention are illustrated in Tables 1-14 attached as appendices. The tables show inhibitory activity of many of the example compounds with respect to HCV 1b. […] The tables further provide mass spectrometry results for the synthesized example compounds.
A general note: In antiviral work, replicon cells carry a viral genome segment that copies itself.

In the case of `COC(=O)N[C@H](C(=O)N1CCC[C@H]1c1ncc(-c2ccc(C#Cc3ccc4nc([C@@H]5CCCN5C(=O)[C@@H](NC(=O)OC)[C@@H](C)OC)[nH]c4c3)cc2)[nH]1)[C@@H](C)OC` [Compound 862], the EC50 was less than 1 nM. Regarding `O=C(N[C@@H](C(=O)N1CCC[C@H]1c1ncc(-c2ccc(C#Cc3ccc(-c4cnc([C@@H]5CCCN5C(=O)[C@H](NC(=O)N5CC[C@@H](O)C5)c5ccccc5)[nH]4)cc3)cc2)[nH]1)c1ccccc1)N1CC[C@@H](O)C1` [Compound 252], the EC50 is less than 1 nM. `CN(C)C(=O)N[C@@H](C(=O)N1CCC[C@H]1c1ncc(-c2ccc(C#Cc3ccc(-c4cnc([C@@H]5CCCN5C(=O)[C@H](NC(=O)N(C)C)c5ccccc5)[nH]4)cc3)cc2)[nH]1)c1ccccc1` [Compound 161]: the EC50 is less than 1 nM. For the compound `COC(=O)NC1(C(=O)N2CCC[C@H]2c2ncc(-c3ccc(C#Cc4ccc5nc([C@@H]6CCCN6C(=O)C6(NC(=O)OC)CC6)[nH]c5c4)cc3)[nH]2)CC1` [Compound 1043], the EC50 lay in the range of 10 to 999 nM. To `COC(=O)N[C@@H](C(=O)N[C@@H](C)c1ncc(-c2ccc(C#Cc3ccc(-c4cnc([C@@H]5CCCN5C(=O)[C@H](NC(=O)OC)c5ccccc5)[nH]4)cc3)cc2)[nH]1)c1ccccc1` [Compound 279] belongs less than 1 nM; to `C[C@@H](NC(=O)OC(C)(C)C)C(=O)N1CCC[C@H]1c1ncc(-c2ccc(C#Cc3ccc(-c4cnc([C@@H]5CCCN5C(=O)[C@@H](C)NC(=O)OC(C)(C)C)[nH]4)cc3)cc2)[nH]1` [Compound 151], 10 to 999 nM. As for `COC(=O)N[C@H](C(=O)N1CCC[C@H]1c1ncc(-c2ccc(C#Cc3ccc(-c4cnc([C@H](C)NC(=O)[C@@H](NC(=O)OC)[C@@H](C)OC)[nH]4)cc3)cc2)[nH]1)C(C)OC` (stereo partly shown) [Compound 289], the figure is less than 1 nM.

Turning to `COC(=O)N[C@H](C(=O)N1CCC[C@H]1c1nc(-c2ccc3cc(C#Cc4cnc([C@@H]5CCCN5C(=O)[C@@H](NC(=O)OC)C(C)C)[nH]4)ccc3c2)c[nH]1)c1ccccc1` [Compound 1078], the EC50 was less than 1 nM. `COC(=O)N[C@H](C(=O)N[C@@H](C)c1nc2ccc(C#Cc3ccc(-c4cnc([C@@H]5CCCN5C(=O)[C@@H](NC(=O)OC)C(C)C)[nH]4)cc3)cc2[nH]1)C(C)C` [Compound 867]: the EC50 was less than 1 nM.

Turning to `COC(=O)N[C@@H](C(=O)N1CCC[C@H]1c1ncc(-c2ccc(C#Cc3ccc(-c4cnc([C@@H]5CCCN5C(=O)[C@H](NC(=O)N5CCCC5)c5ccccc5)[nH]4)cc3)cc2)[nH]1)c1ccccc1` [Compound 243], the EC50 was less than 1 nM. To `COC(=O)N[C@H](C(=O)N1CCC[C@H]1c1ncc(-c2ccc(C#Cc3ccc(-c4cnc([C@@H]5CCCN5C(=O)[C@H](NC(=O)N5CC[C@@H](O)C5)c5ccccc5)[nH]4)cc3)cc2)[nH]1)C(C)C` [Compound 975] belongs less than 1 nM; to `COC(=O)N[C@H](C(=O)N1CCC[C@H]1c1ncc(-c2ccc(C#Cc3ccc(-c4cnc([C@@H]5CCCN5C(=O)[C@H](NC(=O)N5CCC(C)(O)CC5)c5ccccc5)[nH]4)cc3)cc2)[nH]1)C(C)C` [Compound 992], less than 1 nM. To `COC(=O)N[C@H](C(=O)N1CCC[C@H]1c1ncc(-c2ccc(C#Cc3ccc(-c4cnc([C@@H]5CCCN5C(=O)[C@H](NC(=O)N5CC[C@H](O)C5)c5ccccc5)[nH]4)cc3)cc2)[nH]1)C(C)C` [Compound 974] belongs less than 1 nM. Regarding `COC(=O)N[C@@H](CCC(N)=O)C(=O)N1CCC[C@H]1c1ncc(-c2ccc(C#Cc3ccc4nc([C@@H]5CCCN5C(=O)[C@H](CCC(N)=O)NC(=O)OC)[nH]c4c3)cc2)[nH]1` [Compound 1051], the EC50 fell in the range of 1 to 9.9 nM. As for `COC(=O)NC(C(=O)N1CCC[C@H]1c1ncc(-c2ccc(C#Cc3ccc(-c4cnc([C@@H]5CCCN5C(=O)[C@H](NC(=O)OC)[C@H](C)O)[nH]4)cc3)cc2)[nH]1)[C@H](C)O` (stereo partly shown) [Compound 978], the figure is 10 to 999 nM. Consider `COC(=O)N[C@H](C(=O)N[C@@H](C)c1ncc(-c2ccc(C#Cc3ccc(-c4cnc([C@H](C)NC(=O)[C@@H](NC(=O)OC)C(C)C)[nH]4)cc3)cc2)[nH]1)C(C)C` [Compound 951], for which the EC50 is less than 1 nM. In the case of `CC(C)[C@@H](NC(=O)C1CC1)C(=O)N1CCC[C@H]1c1ncc(-c2ccc(C#Cc3ccc(-c4cnc([C@@H]5CCCN5C(=O)[C@H](NC(=O)C5CC5)C(C)C)[nH]4)cc3)cc2)[nH]1` [Compound 155], the EC50 fell in the range of 1 to 9.9 nM.

In the case of `COC(=O)N[C@H](C(=O)N1CCC[C@H]1c1ncc(-c2ccc(C#Cc3ccc4c(c3)CCc3nc([C@@H]5CCCN5C(=O)[C@@H](NC(=O)OC)C(C)C)[nH]c3-4)cc2)[nH]1)C(C)C` [Compound 1094], the EC50 was less than 1 nM. To `COC(=O)N[C@@H](C)C(=O)N1CCC[C@H]1c1ncc(-c2ccc(C#Cc3ccc(-c4cnc([C@@H]5CCCN5C(=O)[C@@H](c5ccccc5)N5CCOC5=O)[nH]4)cc3)cc2)[nH]1` [Compound 1008] belongs less than 1 nM.

With `CC[C@@H](C(=O)N1CCC[C@H]1c1ncc(-c2ccc(C#Cc3ccc(-c4cnc([C@@H]5CCCN5C(=O)[C@H](NC(=O)OC)c5ccccc5)[nH]4)cc3)cc2)[nH]1)c1ccccc1` [Compound 258], the EC50 was less than 1 nM. With `COC(=O)N[C@@H](C(=O)N1CCC[C@H]1c1ncc(-c2ccc(C#Cc3ccc(-c4cnc([C@@H]5CCCN5C(=O)c5nccn5C)[nH]4)cc3)cc2)[nH]1)c1ccccc1` [Compound 176], the EC50 is less than 1 nM. To `COC(=O)N[C@@H](C(=O)N1CCC[C@H]1c1ncc(-c2ccc(C#Cc3ccc(-c4cnc([C@@H]5CCCN5C(=O)[C@H](NC(=O)N5CCC(O)CC5)c5ccccc5)[nH]4)cc3)cc2)[nH]1)c1ccccc1` [Compound 241] belongs less than 1 nM; to `O=C(N[C@@H](C(=O)N1CCC[C@H]1c1ncc(-c2ccc(C#Cc3ccc(-c4cnc([C@@H]5CCCN5C(=O)[C@H](NC(=O)N5CCCCC5)c5ccccc5)[nH]4)cc3)cc2)[nH]1)c1ccccc1)N1CCCCC1` [Compound 250], less than 1 nM; to `C(#Cc1ccc2nc([C@@H]3CCCN3Cc3ccccc3)[nH]c2c1)c1ccc(-c2cnc([C@@H]3CCCN3Cc3ccccc3)[nH]2)cc1` [Compound 1052], greater than 1000 nM.

As for `CC(=O)N[C@@H](C(=O)N1CCC[C@H]1c1ncc(C#Cc2ccc(-c3cnc([C@@H]4CCCN4C(=O)[C@H](NC(C)=O)c4ccccc4)[nH]3)cc2)[nH]1)c1ccccc1` [Compound 109], the EC50 was less than 1 nM.

Consider `CCN(CC)[C@@H](C(=O)N1CCC[C@H]1c1ncc(-c2ccc(C#Cc3ccc(-c4cnc([C@@H]5CCCN5C(=O)[C@@H](NC(=O)OC)C(C)C)[nH]4)cc3)cc2)[nH]1)c1ccccc1` [Compound 985], for which the EC50 was less than 1 nM. `COC(=O)NCC(=O)N1CCC[C@H]1c1ncc(-c2ccc(C#Cc3ccc4nc([C@@H]5CCCN5C(=O)CNC(=O)OC)[nH]c4c3)cc2)[nH]1` [Compound 1049]: the EC50 lay in the range of 10 to 999 nM. On to `COC(=O)N[C@@H](C(=O)N1CCC[C@H]1c1ncc(C#Cc2ccc(-c3ccc(-c4cnc([C@@H]5CCCN5C(=O)[C@@H](c5ccccc5)N5CCCC5)[nH]4)cc3)cc2)[nH]1)c1ccccc1` [Compound 759], for which the EC50 is less than 1 nM. With `COC(=O)N[C@@H](C(=O)N1CCC[C@H]1c1ncc(-c2ccc(C#Cc3ccc(-c4cnc([C@@H]5CCCN5C(=O)[C@H](NC(=O)[C@H]5CCCN5)c5ccccc5)[nH]4)cc3)cc2)[nH]1)c1ccccc1` [Compound 207], the EC50 was less than 1 nM. As for `O=C(N[C@@H](C(=O)N1CCC[C@H]1c1nc(-c2ccc3cc(C#Cc4cnc([C@@H]5CCCN5C(=O)[C@H](NC(=O)N5CCOCC5)c5ccccc5)[nH]4)ccc3c2)c[nH]1)c1ccccc1)N1CCOCC1` [Compound 808], the figure is less than 1 nM. Regarding `CC1(O)CCC(C(=O)N[C@@H](C(=O)N2CCC[C@H]2c2nc(-c3ccc4cc(C#Cc5cnc([C@@H]6CCCN6C(=O)[C@H](NC(=O)N6CCC(C)(O)CC6)c6ccccc6)[nH]5)ccc4c3)c[nH]2)c2ccccc2)CC1` (stereo partly shown) [Compound 805], the EC50 was less than 1 nM.

In the case of `CC(C)[C@@H](NC(=O)C1CC1)C(=O)N1CCC[C@H]1C(=O)Nc1ccc(C#Cc2cnc([C@@H]3CCCN3C(=O)[C@H](NC(=O)C3CC3)C(C)C)[nH]2)cc1` [Compound 116], the EC50 fell in the range of 1 to 9.9 nM. To `COC(=O)N[C@H](C(=O)N1CCC[C@H]1c1nc2ccc(C#Cc3ccc(-c4ccc5nc([C@@H]6CCCN6C(=O)[C@@H](NC(=O)OC)C(C)C)[nH]c5c4)nc3)cc2[nH]1)C(C)C` [Compound 1083] belongs less than 1 nM; to `COC(=O)N[C@@H](C(=O)N1CCC[C@H]1c1ncc(-c2ccc(C#Cc3ccc(-c4cnc([C@@H]5CCCN5C(=O)[C@H](NC(=O)[C@@H]5CCCO5)c5ccccc5)[nH]4)cc3)cc2)[nH]1)c1ccccc1` [Compound 195], less than 1 nM; to `COC(=O)N[C@@H](Cc1c[nH]c2ccccc12)C(=O)N1CCC[C@H]1c1ncc(-c2ccc(C#Cc3ccc4nc([C@@H]5CCCN5C(=O)[C@H](Cc5c[nH]c6ccccc56)NC(=O)OC)[nH]c4c3)cc2)[nH]1` [Compound 1057], less than 1 nM. To `O=C(N[C@@H](C(=O)N1CCC[C@H]1c1ncc(-c2ccc(C#Cc3ccc(-c4cnc([C@@H]5CCCN5C(=O)[C@H](NC(=O)OC5CCOCC5)c5ccccc5)[nH]4)c(F)c3)cc2)[nH]1)c1ccccc1)OC1CCOCC1` [Compound 1014] belongs less than 1 nM. Consider `COC(=O)N[C@@H](C(=O)N1CCC[C@H]1c1ncc(-c2ccc(C#Cc3ccc(-c4cnc([C@@H]5CCCN5C(=O)[C@H](OC)c5ccccc5)[nH]4)cc3)cc2)[nH]1)c1ccccc1` [Compound 179], for which the EC50 is less than 1 nM.
